Test results reported in publication PMC3145970, “Specific CLK Inhibitors from a Novel Chemotype for Regulation of Alternative Splicing” (Chemistry & Biology, 2011).
Read-outs that look alike come from different tables or passages of the source.

What was measured:
Test in all cases: Thermal stability shift assay
Format in all cases: binding
MST4 = molecular target: T1, MST4 (Homo sapiens, UniProt Q9P289); conditions: read-out: Tm shift MST4
T1 construct: purchased in-house (SGC Oxford thermal shift panel)
Method in brief: (§1)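 2 μM protein + 10 μM inhibitor; 10 mM HEPES pH 7.5, 500 mM NaCl, SyproOrange 1:1000; melt in qPCR cycler, dye fluorescence monitored.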

ZAK = ZAK (Homo sapiens, UniProt Q9NYL2); conditions: read-out: Tm shift ZAK
Method in brief: as §1

RSK4 = RSK4 (Homo sapiens, UniProt Q9UK32); conditions: read-out: Tm shift RSK4
Method in brief: as §1

PKD3 = molecular target: T2, PKD3 (Homo sapiens, UniProt O94806); conditions: read-out: Tm shift PKD3
T2 sequence (O94806 1-890): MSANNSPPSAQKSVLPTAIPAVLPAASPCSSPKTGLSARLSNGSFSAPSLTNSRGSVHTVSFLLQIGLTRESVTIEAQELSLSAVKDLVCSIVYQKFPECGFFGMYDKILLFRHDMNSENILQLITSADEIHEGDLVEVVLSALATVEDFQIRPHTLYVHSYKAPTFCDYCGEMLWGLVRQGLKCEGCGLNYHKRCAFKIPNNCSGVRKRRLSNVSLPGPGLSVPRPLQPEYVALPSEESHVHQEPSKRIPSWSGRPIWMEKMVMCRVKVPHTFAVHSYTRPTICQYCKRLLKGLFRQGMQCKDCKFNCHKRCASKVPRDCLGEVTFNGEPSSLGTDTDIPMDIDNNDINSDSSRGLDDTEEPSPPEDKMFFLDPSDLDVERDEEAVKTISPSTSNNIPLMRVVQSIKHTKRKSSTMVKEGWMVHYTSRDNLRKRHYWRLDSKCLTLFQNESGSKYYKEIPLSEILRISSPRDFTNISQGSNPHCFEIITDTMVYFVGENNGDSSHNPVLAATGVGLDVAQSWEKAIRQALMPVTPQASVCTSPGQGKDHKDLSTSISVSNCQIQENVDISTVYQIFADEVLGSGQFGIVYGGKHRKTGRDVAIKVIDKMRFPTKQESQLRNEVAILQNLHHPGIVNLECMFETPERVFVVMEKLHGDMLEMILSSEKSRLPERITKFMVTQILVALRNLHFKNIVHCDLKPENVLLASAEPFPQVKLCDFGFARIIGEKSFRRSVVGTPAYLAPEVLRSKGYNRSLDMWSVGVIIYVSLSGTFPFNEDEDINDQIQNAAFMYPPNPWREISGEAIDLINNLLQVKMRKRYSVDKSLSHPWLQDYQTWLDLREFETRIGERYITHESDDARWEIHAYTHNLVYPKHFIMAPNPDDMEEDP
Method in brief: as §1

JNK1 = molecular target: T3, JNK1 (Homo sapiens, UniProt P45983); conditions: read-out: Tm shift JNK1
T3 construct: purchased in-house (SGC Oxford thermal shift panel)
Method in brief: as §1

ZC2/TNIK = ZC2/TNIK (Homo sapiens, UniProt Q9UKE5); conditions: read-out: Tm shift ZC2/TNIK
Method in brief: as §1

MST3 = molecular target: T4, MST3 (Homo sapiens, UniProt Q9Y6E0); conditions: read-out: Tm shift MST3
T4 construct: purchased in-house (SGC Oxford thermal shift panel)
Method in brief: as §1

PKG1 = molecular target: T5, PKG1 (Homo sapiens, UniProt Q13976); conditions: read-out: Tm shift PKG1
T5 sequence (Q13976 1-671): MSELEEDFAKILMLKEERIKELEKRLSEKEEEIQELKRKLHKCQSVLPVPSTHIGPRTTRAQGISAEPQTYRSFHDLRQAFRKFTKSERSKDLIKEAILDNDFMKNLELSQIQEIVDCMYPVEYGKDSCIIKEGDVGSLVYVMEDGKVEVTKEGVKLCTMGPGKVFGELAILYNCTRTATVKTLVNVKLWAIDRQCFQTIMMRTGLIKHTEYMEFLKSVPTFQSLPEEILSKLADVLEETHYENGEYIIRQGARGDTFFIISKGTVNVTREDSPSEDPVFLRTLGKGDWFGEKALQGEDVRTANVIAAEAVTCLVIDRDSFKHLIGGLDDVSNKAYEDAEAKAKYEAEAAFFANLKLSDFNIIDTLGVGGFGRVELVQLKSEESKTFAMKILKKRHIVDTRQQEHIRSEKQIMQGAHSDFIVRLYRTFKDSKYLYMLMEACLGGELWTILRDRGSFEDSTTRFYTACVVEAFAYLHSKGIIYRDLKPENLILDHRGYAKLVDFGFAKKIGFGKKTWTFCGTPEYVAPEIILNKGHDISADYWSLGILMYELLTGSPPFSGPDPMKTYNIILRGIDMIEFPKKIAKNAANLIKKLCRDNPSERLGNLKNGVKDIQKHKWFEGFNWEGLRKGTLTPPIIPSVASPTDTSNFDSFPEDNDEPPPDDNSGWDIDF
Method in brief: as §1

CaMK4 = molecular target: T6, CaMK4 (Homo sapiens, UniProt Q16566); conditions: read-out: Tm shift CaMK4
T6 sequence (Q16566 1-473): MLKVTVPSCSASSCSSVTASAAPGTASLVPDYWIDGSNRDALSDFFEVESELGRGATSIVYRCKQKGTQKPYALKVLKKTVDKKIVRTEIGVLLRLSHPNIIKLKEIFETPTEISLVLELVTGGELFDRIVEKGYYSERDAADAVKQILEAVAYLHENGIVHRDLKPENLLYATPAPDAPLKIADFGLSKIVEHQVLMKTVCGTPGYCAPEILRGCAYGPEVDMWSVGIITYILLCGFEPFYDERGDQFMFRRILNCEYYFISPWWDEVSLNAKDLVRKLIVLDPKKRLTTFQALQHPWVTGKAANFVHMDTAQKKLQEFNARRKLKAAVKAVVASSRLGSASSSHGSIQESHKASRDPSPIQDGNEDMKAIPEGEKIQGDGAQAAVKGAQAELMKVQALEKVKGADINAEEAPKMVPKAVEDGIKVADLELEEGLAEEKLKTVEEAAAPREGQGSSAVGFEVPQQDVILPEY
Method in brief: as §1

MAP2K2 = molecular target: T7, MAP2K2 (Homo sapiens, UniProt P36507); conditions: read-out: Tm shift MAP2K2
T7 construct: purchased in-house (SGC Oxford thermal shift panel)
Method in brief: as §1

T4 sequence (Q9Y6E0 whole entry): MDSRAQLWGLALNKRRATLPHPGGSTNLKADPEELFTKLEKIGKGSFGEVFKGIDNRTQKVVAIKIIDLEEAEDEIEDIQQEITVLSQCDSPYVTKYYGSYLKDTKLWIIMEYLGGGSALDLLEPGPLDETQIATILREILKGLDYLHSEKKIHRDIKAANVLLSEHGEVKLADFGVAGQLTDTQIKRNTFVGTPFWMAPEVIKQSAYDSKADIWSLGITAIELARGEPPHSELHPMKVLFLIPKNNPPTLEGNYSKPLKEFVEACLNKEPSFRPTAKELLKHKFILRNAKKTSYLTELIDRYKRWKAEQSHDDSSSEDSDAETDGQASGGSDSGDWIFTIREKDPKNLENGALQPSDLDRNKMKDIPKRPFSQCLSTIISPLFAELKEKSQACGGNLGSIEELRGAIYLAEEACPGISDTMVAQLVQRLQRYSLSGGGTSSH
T1 sequence (Q9P289 whole entry): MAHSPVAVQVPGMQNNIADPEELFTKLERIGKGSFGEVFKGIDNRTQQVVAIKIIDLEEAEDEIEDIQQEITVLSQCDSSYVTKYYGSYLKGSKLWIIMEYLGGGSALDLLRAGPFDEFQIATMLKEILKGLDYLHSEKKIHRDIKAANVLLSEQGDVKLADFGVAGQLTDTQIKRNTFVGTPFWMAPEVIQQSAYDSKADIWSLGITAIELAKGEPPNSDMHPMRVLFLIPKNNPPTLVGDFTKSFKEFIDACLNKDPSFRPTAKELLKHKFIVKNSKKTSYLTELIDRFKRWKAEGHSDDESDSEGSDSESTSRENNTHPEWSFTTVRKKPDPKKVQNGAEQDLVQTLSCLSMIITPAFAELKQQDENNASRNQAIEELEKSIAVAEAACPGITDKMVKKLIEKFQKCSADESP
Sequence of RSK4 (Q9UK32 whole entry): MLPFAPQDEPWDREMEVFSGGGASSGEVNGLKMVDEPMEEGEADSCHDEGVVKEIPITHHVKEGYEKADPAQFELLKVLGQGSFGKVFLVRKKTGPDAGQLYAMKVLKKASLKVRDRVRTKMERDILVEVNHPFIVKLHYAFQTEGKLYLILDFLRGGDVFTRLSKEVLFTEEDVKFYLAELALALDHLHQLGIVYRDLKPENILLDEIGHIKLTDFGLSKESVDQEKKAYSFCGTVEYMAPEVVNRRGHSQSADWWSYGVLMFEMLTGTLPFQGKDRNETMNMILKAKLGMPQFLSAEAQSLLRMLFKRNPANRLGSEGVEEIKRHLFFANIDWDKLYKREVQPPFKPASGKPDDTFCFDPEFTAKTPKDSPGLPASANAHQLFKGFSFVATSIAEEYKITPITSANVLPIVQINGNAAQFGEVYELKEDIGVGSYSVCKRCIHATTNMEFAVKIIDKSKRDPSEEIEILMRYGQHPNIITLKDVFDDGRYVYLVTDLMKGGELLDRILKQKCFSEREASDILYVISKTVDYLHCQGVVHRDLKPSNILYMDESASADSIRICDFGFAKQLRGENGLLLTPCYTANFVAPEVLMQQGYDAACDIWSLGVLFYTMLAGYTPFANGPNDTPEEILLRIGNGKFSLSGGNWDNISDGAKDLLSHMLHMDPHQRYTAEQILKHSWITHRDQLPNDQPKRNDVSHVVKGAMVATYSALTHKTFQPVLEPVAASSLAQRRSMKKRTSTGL
T7 sequence (P36507 whole entry): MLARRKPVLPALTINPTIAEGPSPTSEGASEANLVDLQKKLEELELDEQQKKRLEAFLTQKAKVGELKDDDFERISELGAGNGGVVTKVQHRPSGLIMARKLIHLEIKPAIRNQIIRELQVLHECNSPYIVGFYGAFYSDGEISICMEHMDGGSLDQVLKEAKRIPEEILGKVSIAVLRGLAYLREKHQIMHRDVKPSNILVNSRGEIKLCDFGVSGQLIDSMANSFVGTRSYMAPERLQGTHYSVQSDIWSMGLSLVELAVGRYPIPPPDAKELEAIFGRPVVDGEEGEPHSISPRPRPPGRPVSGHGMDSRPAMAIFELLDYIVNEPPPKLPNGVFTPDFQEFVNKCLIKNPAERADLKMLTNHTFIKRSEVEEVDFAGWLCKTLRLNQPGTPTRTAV
T3 sequence (P45983 whole entry): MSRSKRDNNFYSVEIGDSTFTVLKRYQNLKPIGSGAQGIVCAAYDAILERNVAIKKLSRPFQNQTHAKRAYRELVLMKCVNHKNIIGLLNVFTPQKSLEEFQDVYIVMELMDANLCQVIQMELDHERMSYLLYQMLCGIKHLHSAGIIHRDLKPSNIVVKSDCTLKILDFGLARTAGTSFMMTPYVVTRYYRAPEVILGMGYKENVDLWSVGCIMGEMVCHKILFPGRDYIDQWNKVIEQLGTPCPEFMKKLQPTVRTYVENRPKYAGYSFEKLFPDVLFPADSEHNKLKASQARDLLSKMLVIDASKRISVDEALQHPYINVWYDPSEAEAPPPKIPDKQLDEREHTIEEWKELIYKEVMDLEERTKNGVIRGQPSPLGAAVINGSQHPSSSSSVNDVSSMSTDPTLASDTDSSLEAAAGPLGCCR
Sequence of ZC2/TNIK (Q9UKE5 whole entry): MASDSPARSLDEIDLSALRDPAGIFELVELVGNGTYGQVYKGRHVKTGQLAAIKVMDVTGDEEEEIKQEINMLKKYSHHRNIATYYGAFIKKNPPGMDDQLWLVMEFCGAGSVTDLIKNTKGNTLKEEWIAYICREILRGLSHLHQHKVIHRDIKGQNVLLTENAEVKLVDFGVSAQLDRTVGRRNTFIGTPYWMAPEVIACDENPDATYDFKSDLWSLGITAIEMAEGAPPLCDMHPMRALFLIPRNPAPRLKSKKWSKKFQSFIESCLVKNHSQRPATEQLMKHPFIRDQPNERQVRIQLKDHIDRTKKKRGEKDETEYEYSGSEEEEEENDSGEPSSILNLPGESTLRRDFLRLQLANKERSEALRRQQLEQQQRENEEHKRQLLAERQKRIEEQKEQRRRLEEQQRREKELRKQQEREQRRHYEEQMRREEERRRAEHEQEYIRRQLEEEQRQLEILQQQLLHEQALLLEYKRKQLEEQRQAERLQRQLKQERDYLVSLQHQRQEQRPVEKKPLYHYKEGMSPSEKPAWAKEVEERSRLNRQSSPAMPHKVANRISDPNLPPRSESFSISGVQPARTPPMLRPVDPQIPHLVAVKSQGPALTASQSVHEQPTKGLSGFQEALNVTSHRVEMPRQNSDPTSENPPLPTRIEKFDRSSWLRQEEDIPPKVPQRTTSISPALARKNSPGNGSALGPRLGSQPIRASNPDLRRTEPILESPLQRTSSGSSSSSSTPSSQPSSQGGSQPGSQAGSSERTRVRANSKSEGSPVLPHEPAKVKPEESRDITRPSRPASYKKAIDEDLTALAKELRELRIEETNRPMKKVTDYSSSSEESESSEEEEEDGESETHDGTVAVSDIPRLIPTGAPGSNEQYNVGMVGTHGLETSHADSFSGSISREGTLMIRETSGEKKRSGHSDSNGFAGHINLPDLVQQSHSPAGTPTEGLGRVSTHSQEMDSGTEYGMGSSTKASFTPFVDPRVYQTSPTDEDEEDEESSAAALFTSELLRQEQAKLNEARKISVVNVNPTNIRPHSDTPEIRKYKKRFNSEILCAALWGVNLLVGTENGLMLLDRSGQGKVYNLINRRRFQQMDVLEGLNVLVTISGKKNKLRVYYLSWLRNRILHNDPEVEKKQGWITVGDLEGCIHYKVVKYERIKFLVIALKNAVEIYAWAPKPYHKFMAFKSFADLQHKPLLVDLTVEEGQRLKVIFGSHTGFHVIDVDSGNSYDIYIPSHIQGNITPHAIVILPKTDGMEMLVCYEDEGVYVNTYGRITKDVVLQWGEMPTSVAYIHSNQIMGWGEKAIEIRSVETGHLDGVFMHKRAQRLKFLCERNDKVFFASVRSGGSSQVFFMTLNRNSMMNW
Sequence of ZAK (Q9NYL2 whole entry): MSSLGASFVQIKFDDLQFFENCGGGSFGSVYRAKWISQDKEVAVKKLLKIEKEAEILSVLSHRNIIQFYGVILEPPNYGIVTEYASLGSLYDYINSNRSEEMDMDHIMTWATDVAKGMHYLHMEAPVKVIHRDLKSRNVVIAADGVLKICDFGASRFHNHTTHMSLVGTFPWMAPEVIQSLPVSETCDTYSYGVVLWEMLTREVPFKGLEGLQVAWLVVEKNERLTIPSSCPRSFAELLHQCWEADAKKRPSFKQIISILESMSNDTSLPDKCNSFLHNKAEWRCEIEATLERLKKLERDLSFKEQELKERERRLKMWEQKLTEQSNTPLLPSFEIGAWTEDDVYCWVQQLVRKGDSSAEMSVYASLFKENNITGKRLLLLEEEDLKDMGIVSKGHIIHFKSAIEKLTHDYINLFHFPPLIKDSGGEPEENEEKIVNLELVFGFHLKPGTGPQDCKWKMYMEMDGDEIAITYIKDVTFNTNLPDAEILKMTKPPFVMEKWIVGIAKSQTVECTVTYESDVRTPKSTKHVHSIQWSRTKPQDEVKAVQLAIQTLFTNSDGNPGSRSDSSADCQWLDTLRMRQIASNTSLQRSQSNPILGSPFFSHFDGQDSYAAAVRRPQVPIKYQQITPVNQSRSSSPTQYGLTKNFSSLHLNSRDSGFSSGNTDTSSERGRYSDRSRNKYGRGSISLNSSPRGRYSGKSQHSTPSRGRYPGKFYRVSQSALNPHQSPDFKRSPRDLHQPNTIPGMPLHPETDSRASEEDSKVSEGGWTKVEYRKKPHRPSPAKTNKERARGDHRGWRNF

Row | ΔTm at 10 µM (MST4; inhibitor 10 μM) [°C] | ΔTm at 10 µM (ZAK; inhibitor 10 μM) [°C] | ΔTm at 10 µM (RSK4; inhibitor 10 μM) [°C] | ΔTm at 10 µM (PKD3; inhibitor 10 μM) [°C] | ΔTm at 10 µM (JNK1; inhibitor 10 μM) [°C] | ΔTm at 10 µM (ZC2/TNIK; inhibitor 10 μM) [°C] | ΔTm at 10 µM (MST3; inhibitor 10 μM) [°C] | ΔTm at 10 µM (PKG1; inhibitor 10 μM) [°C] | ΔTm at 10 µM (CaMK4; inhibitor 10 μM) [°C] | ΔTm at 10 µM (MAP2K2; inhibitor 10 μM) [°C] | SMILES | ΔTm at 10 µM (MST4) [°C] | ΔTm at 10 µM (ZAK) [°C] | ΔTm at 10 µM (RSK4) [°C] | ΔTm at 10 µM (PKD3) [°C] | ΔTm at 10 µM (JNK1) [°C] | ΔTm at 10 µM (ZC2/TNIK) [°C] | ΔTm at 10 µM (MST3) [°C] | ΔTm at 10 µM (PKG1) [°C] | ΔTm at 10 µM (CaMK4) [°C] | ΔTm at 10 µM (MAP2K2) [°C]
1 | – | – | – | – | – | – | – | – | – | – | CCOC(=O)c1c(C(C#N)=CN)c2ccc(Cl)c(Cl)c2n1C (mixture of isomers) [KH-CB20, (E/Z)-Ethyl 3-(2-Amino-1-Cyanovinyl)-6,7-Dichloro-1-Methyl-1H-Indole-2-Carboxylate] | 0.1 | -0.1 | 1.1 | 0.3 | 0.2 | -0.1 | -0.1 | 0.5 | -0.1 | 0
2 | -0.6 | -0.4 | -0.2 | 0 | 0.1 | 0.1 | -1.1 | 0.3 | 0.2 | -0.4 | CCOC(=O)c1c(C(C#N)=CN(C)C)c2ccc(Cl)c(Cl)c2n1C (mixture of isomers) [compound 2, (E/Z)-Ethyl 6,7-Dichloro-3-[1-Cyano-2-(Dimethylamino)Vinyl]-1-Methyl-1H-Indole-2-Carboxylate] | – | – | – | – | – | – | – | – | – | –
3 | – | – | – | – | – | – | – | – | – | – | CCOC(=O)c1c(/C(C#N)=C\N)c2ccc(Cl)c(Cl)c2n1C [KH-CB19, (E)-Ethyl 3-(2-Amino-1-Cyanovinyl)-6,7-Dichloro-1-Methyl-1H-Indole-2-Carboxylate] | 2.4 | -0.3 | 1.6 | 0.1 | 0.9 | 0.2 | 0.2 | 0.8 | 0.8 | 0.1
4 | 0.4 | -0.2 | 1.3 | 0.4 | 0.2 | 0 | 0.1 | 0.6 | 0.4 | 0.1 | Cn1c2c(Cl)c(Cl)ccc2c2c(C#N)c[nH]c(=O)c21 [compound 3, 7,8-Dichloro-9-Methyl-1-Oxo-2,9-Dihydro-1H-Pyrido[3,4-b]Indole-4-Carbonitrile] | – | – | – | – | – | – | – | – | – | –

Row | SMILES | ΔTm at 10 µM (MST4; inhibitor 10 μM) [°C] | ΔTm at 10 µM (ZAK; inhibitor 10 μM) [°C] | ΔTm at 10 µM (RSK4; inhibitor 10 μM) [°C] | ΔTm at 10 µM (PKD3; inhibitor 10 μM) [°C] | ΔTm at 10 µM (JNK1; inhibitor 10 μM) [°C] | ΔTm at 10 µM (ZC2/TNIK; inhibitor 10 μM) [°C] | ΔTm at 10 µM (MST3; inhibitor 10 μM) [°C] | ΔTm at 10 µM (PKG1; inhibitor 10 μM) [°C] | ΔTm at 10 µM (CaMK4; inhibitor 10 μM) [°C] | ΔTm at 10 µM (MAP2K2; inhibitor 10 μM) [°C] | ΔTm at 10 µM (MST4) [°C] | ΔTm at 10 µM (ZAK) [°C] | ΔTm at 10 µM (RSK4) [°C] | ΔTm at 10 µM (PKD3) [°C] | ΔTm at 10 µM (JNK1) [°C] | ΔTm at 10 µM (ZC2/TNIK) [°C] | ΔTm at 10 µM (MST3) [°C] | ΔTm at 10 µM (PKG1) [°C] | ΔTm at 10 µM (CaMK4) [°C] | ΔTm at 10 µM (MAP2K2) [°C]
5 | NC1=NC(=O)/C(=C2\CCNC(=O)c3[nH]c(Br)cc32)N1 [Hymenialdisine, hymenialdisine, reference compound] | 4.6 | 1.7 | 1.7 | 2 | -0.5 | – | 1 | 1.4 | 0.4 | 2 | – | – | – | – | – | 3.4 | – | – | – | –
